Measured values reported in article PMC9029893 (International Journal of Molecular Sciences, 2022).

What was measured:
[1] = test system: human plasma (platelet poor plasma); assay: Basic coagulation tests: PT, INR, APTT, TT; assay type: biochemical; conditions: for TT: thrombin 3.0 UNIH/mL
Method: The blood was collected into vacuum tubes stuffed with 3.2% buffered sodium citrate. Platelet poor plasma (PPP) was obtained by centrifugation at 3000× g for 10 min at room temperature using a Micro 22R centrifuge (Hettich Zentrifugen, Tuttlingen, Germany). The obtained PPP was stored in small aliquots for up to one month at –30° C. Before each experiment, PPP was restored at 37 °C for 15 min. Once thawed, the PPP was not frozen again nor used for retesting.
The effects of biguanidines (1–5) on the basic coagulation parameters (PT, INR, APTT, and TT) were carried out using a CoagChrom-3003 coagulometer (Bio-Ksel, Grudziądz, Poland), according to the routine laboratory diagnostic procedure. The studies were performed in multiplicate (n = 4–7). The control samples containing distilled water and methanol (1:1) were also included.
The results are presented as mean ± standard deviation (SD). The methods were validated, and coefficients of variability for all experiments were calculated (PT: CV = 10.25%, APTT: CV = 8.55%, TT: CV = 4.87%). The reference values for each test are as follows: PT: 9.7–14.6 s; APTT: 26.7–40.0 s; TT: 14.0–18.0 s for 3.0 UNIH/mL of thrombin.

factor X = target: T1, factor X (Homo sapiens, UniProt P00742); assay: Factor X activity; assay type: biochemical
T1 construct: 50 µL of four-fold diluted PPP, 50 μL of deficient plasma factor X, 10 μL of the examined compound; from tissue; host or cells: platelet-poor plasma (PPP), mixed with factor X-depleted plasma (Bio-Ksel)
Method: The activity of FX was measured optically using deficient plasma factor X [75]. The content of each sample was as follows: 50 µL of four-fold diluted PPP, 50 μL of deficient plasma factor X, 10 μL of the examined compound, and 100 µL PT reagent. The control samples contained 10 μL of distilled water and methanol (1:1). The measurement of PT time was recorded using a CoagChrom-3003 coagulometer (Bio-Ksel, Grudziadz, Poland). The activity of factor X was counted using a calibration curve (R^2 = 0.999) performed on a calibrator diluted in the range 1:5–1:80 [76]. The variation in plasma coagulation time is proportional to the concentration and activity of factor X in the patient plasma treated with the tested compounds. The coefficient of variability for the method was calculated as CV = 1.80%. The reference values for factor X activity ranged from 77–131%.

HUVEC cells = assay: HUVEC migration, wound-healing assay (JuLI Stage); assay type: cell-based, human
Method: The effects of compounds 1–5 on HUVEC migration were determined using the JuLI™ Stage system (NanoEntek, Seoul, Korea): a real-time cell history recorder allowing for live cell imaging and analysis. The procedure for the migration experiments has been published elsewhere in more detail. Concisely, HUVECs were seeded at a density of 10,000 cells per well on 96-well plates and incubated at standard conditions for 24 h. Following this, a wound was made with a scratcher (NanoEntek, Seoul, Korea). The cells were then rinsed with 100 μL of fresh EGM2 medium, and treated with biguanides 1–5 at the concentrations of 0.3 and 1.0 mM. The cells were incubated and monitored continuously every 10 min for 36 h at 37 °C, 5% CO2. Analysis of obtained images of cell migration, and measurements of the width of the scratch area were performed using dedicated software (NanoEntek, Seoul, Korea). The results were presented as mean ± SD, n = 4–8. The CV for the method was estimated as 14.2–24.4%, depending on the time point (n = 8).

[2] = test system: tissue plasminogen activator (t-PA) release from HUVEC; assay: t-PA release from HUVEC (ELISA); assay type: cell-based, human; conditions: 24 h, HUVEC supernatants
Method: The influence on tissue plasminogen activator release from HUVECs was assessed using an ELISA kit (Abcam, Cambridge, UK). HUVECs seeded at a density of 10,000 per well on 96-well plates were co-incubated with compounds 1–5 at the concentrations of 0.3 and 1.0 mM for an additional 24 h (37 °C, 5% CO2). The cell supernatants were discarded into Eppendorf tubes and preserved at −20° C until analysis. Before the tests, the samples were thawed at room temperature for 15 min, and diluted 2.5-fold with diluent in Elisa kit. The measurements of t-PA concentrations in cell supernatants were conducted according to the manufacturer’s protocol using 3,3’,5,5’-tetramethylbenzidine (TMB) as a chromogenic substrate. The concentration of t-PA in HUVEC supernatants was determined using a calibration curve (R^2 = 0.9936). The results are presented as mean ± SD, n = 6. The CV for the applied method was 7.21%.

T1 sequence (P00742 41-488): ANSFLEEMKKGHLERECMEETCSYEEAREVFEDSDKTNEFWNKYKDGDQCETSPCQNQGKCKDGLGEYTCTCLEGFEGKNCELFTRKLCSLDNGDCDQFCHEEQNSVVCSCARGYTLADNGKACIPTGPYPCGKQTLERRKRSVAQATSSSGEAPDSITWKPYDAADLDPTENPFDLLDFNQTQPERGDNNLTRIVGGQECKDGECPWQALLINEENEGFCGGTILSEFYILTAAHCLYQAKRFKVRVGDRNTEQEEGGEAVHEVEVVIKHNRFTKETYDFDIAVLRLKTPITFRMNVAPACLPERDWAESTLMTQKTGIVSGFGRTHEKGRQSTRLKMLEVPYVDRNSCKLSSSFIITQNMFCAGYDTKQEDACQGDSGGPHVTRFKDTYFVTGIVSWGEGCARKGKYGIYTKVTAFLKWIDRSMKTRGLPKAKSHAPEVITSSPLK

Q: What does the source list for CCCCCCCCS(=O)(=O)NC(N)=NC(=N)N(C)C [Compound 2]?
A: APTT ([1]; 0.006 mM): 30.79 ± 5.87 s; INR ([1]; 0.006 mM): 1.07 ± 0.15; PT ([1]; 0.006 mM): 13.30 ± 1.81 s; TT ([1]; 0.006 mM): 14.14 ± 0.59 s; APTT ([1]; 0.06 mM): 31.33 ± 5.53 s; INR ([1]; 0.06 mM): 1.03 ± 0.10; PT ([1]; 0.06 mM): 12.82 ± 1.33 s; TT ([1]; 0.06 mM): 13.86 ± 0.80 s; APTT ([1]; 0.3 mM): 33.49 ± 4.85 s; INR ([1]; 0.3 mM): 1.05 ± 0.11; PT ([1]; 0.3 mM): 13.10 ± 1.37 s; TT ([1]; 0.3 mM): 13.48 ± 2.10 s; APTT ([1]; 0.6 mM): 33.46 ± 5.59 s; INR ([1]; 0.6 mM): 1.04 ± 0.11; PT ([1]; 0.6 mM): 12.96 ± 1.42 s; TT ([1]; 0.6 mM): 14.40 ± 2.35 s; APTT ([1]; 1.5 mM): 34.83 ± 6.22 s; INR ([1]; 1.5 mM): 1.06 ± 0.10; PT ([1]; 1.5 mM): 13.20 ± 1.23 s; TT ([1]; 1.5 mM): 16.32 ± 2.21 s; Factor X activity (factor X; 0.3 mM): 107.40 ± 6.19%; Factor X activity (factor X; 0.6 mM): 104.00 ± 5.34%; Factor X activity (factor X; 1.5 mM): 107.00 ± 4.00%; wound width (HUVEC cells; 0.3 mM, 6 hours): 493.8 ± 133.1 µm; wound width (HUVEC cells; 0.3 mM, 12 hours): 442.4 ± 142.9 µm; wound width (HUVEC cells; 0.3 mM, 18 hours): 351.4 ± 82.6 µm; wound width (HUVEC cells; 0.3 mM, 24 hours): 328.6 ± 56.9 µm; wound width (HUVEC cells; 0.3 mM, Start): 637.4 ± 116.3 µm; wound width (HUVEC cells; 1.0 mM, 6 hours): 590.8 ± 40.2 µm; wound width (HUVEC cells; 1.0 mM, 12 hours): 541.5 ± 99.2 µm; wound width (HUVEC cells; 1.0 mM, 18 hours): 453.1 ± 106.1 µm; wound width (HUVEC cells; 1.0 mM, 24 hours): 357.2 ± 68.1 µm; wound width (HUVEC cells; 1.0 mM, Start): 712.4 ± 56.5 µm; Released t-PA ([2]; 0.3 mM): 1633.9 ± 263.2 pg/mL; Released t-PA ([2]; 1.0 mM): 990.0 ± 158.5 pg/mL

Q: How did the APTT ([1]; 0.006 mM) turn out when CCCCS(=O)(=O)NC(N)=NC(=N)N(C)C [Compound 1] was run?
A: Its APTT is 35.12 ± 4.75 s.

Q: And the INR ([1]; 0.006 mM)?
A: Its INR is 1.04 ± 0.19.

Q: And the PT ([1]; 0.006 mM)?
A: The PT was 13.04 ± 2.41 s.

Q: What about the TT ([1]; 0.006 mM) of the same molecule?
A: The TT was 14.03 ± 0.94 s.

Q: What about the APTT ([1]; 0.06 mM) of the same molecule?
A: Its APTT is 33.36 ± 1.78 s.

Q: What about the INR ([1]; 0.06 mM) of the same molecule?
A: Its INR is 1.11 ± 0.23.

Q: And the PT ([1]; 0.06 mM)?
A: Its PT is 12.78 ± 1.86 s.

Q: What about the TT ([1]; 0.06 mM) of the same molecule?
A: The TT was 12.98 ± 1.08 s.

Q: And the APTT ([1]; 0.3 mM)?
A: The APTT was 33.76 ± 2.53 s.

Q: What about the INR ([1]; 0.3 mM) of the same molecule?
A: The INR was 1.08 ± 0.22.

Q: What about the PT ([1]; 0.3 mM) of the same molecule?
A: Its PT is 13.46 ± 2.71 s.

Q: And the TT ([1]; 0.3 mM)?
A: Its TT is 13.90 ± 1.24 s.

Q: What about the APTT ([1]; 0.6 mM) of the same molecule?
A: Its APTT is 34.68 ± 3.31 s.

Q: What about the INR ([1]; 0.6 mM) of the same molecule?
A: The INR was 1.05 ± 0.19.

Q: And the PT ([1]; 0.6 mM)?
A: Its PT is 13.08 ± 2.36 s.

Q: And the TT ([1]; 0.6 mM)?
A: The TT was 12.64 ± 1.31 s.

Q: And the APTT ([1]; 1.5 mM)?
A: Its APTT is 34.68 ± 5.21 s.

Q: And the INR ([1]; 1.5 mM)?
A: Its INR is 1.08 ± 0.23.

Q: And the PT ([1]; 1.5 mM)?
A: The PT was 13.48 ± 2.93 s.

Q: What about the TT ([1]; 1.5 mM) of the same molecule?
A: The TT was 13.03 ± 0.86 s.

Q: What about the “Factor X activity” value (factor X; 0.3 mM) of the same molecule?
A: The value was 107.60 ± 4.62%.

Q: What about the “Factor X activity” value (factor X; 0.6 mM) of the same molecule?
A: The value was 104.20 ± 4.97%.

Q: And the “Factor X activity” value (factor X; 1.5 mM)?
A: Its value is 97.40 ± 8.05%.

Q: What about the wound width (HUVEC cells; 0.3 mM, 6 hours) of the same molecule?
A: The wound width was 491.9 ± 31.7 µm.

Q: And the wound width (HUVEC cells; 0.3 mM, 12 hours)?
A: Its wound width is 421.2 ± 5.9 µm.

Q: And the wound width (HUVEC cells; 0.3 mM, 18 hours)?
A: Its wound width is 365.2 ± 35.8 µm.

Q: What about the wound width (HUVEC cells; 0.3 mM, 24 hours) of the same molecule?
A: Its wound width is 336.7 ± 39.0 µm.

Q: What about the wound width (HUVEC cells; 0.3 mM, Start) of the same molecule?
A: The wound width was 605.8 ± 38.63 µm.

Q: What about the wound width (HUVEC cells; 1.0 mM, 6 hours) of the same molecule?
A: The wound width was 461.9 ± 33.4 µm.

Q: What about the wound width (HUVEC cells; 1.0 mM, 12 hours) of the same molecule?
A: Its wound width is 375.1 ± 29.9 µm.

Q: And the wound width (HUVEC cells; 1.0 mM, 18 hours)?
A: The wound width was 344.4 ± 32.8 µm.

Q: And the wound width (HUVEC cells; 1.0 mM, 24 hours)?
A: The wound width was 337.5 ± 47.3 µm.

Q: And the wound width (HUVEC cells; 1.0 mM, Start)?
A: The wound width was 589.1 ± 36.3 µm.

Q: And the “Released t-PA” value ([2]; 0.3 mM)?
A: Its value is 2427.2 ± 246.0 pg/mL.

Q: And the “Released t-PA” value ([2]; 1.0 mM)?
A: Its value is 1709.5 ± 219.1 pg/mL.

Q: What does the source list for CN(C)C(=N)N=C(N)NS(=O)(=O)C1CCCCC1 [Compound 3]?
A: APTT ([1]; 0.006 mM): 32.97 ± 5.06 s; INR ([1]; 0.006 mM): 1.00 ± 0.11; PT ([1]; 0.006 mM): 12.52 ± 1.42 s; TT ([1]; 0.006 mM): 13.18 ± 1.97 s; APTT ([1]; 0.06 mM): 34.50 ± 4.52 s; INR ([1]; 0.06 mM): 1.04 ± 0.15; PT ([1]; 0.06 mM): 13.02 ± 1.90 s; TT ([1]; 0.06 mM): 13.14 ± 2.01 s; APTT ([1]; 0.3 mM): 33.00 ± 5.70 s; INR ([1]; 0.3 mM): 1.09 ± 0.11; PT ([1]; 0.3 mM): 13.60 ± 1.39 s; TT ([1]; 0.3 mM): 13.46 ± 1.97 s; APTT ([1]; 0.6 mM): 33.17 ± 5.34 s; INR ([1]; 0.6 mM): 1.09 ± 0.18; PT ([1]; 0.6 mM): 13.66 ± 2.27 s; TT ([1]; 0.6 mM): 13.50 ± 1.74 s; APTT ([1]; 1.5 mM): 32.49 ± 7.50 s; INR ([1]; 1.5 mM): 1.06 ± 0.18; PT ([1]; 1.5 mM): 13.30 ± 2.30 s; TT ([1]; 1.5 mM): 14.06 ± 1.60 s; Factor X activity (factor X; 0.3 mM): 105.60 ± 2.30%; Factor X activity (factor X; 0.6 mM): 103.40 ± 7.23%; Factor X activity (factor X; 1.5 mM): 104.20 ± 8.14%; wound width (HUVEC cells; 0.3 mM, 6 hours): 606.7 ± 149.4 µm; wound width (HUVEC cells; 0.3 mM, 12 hours): 486.0 ± 131.2 µm; wound width (HUVEC cells; 0.3 mM, 18 hours): 441.9 ± 99.5 µm; wound width (HUVEC cells; 0.3 mM, 24 hours): 395.9 ± 104.7 µm; wound width (HUVEC cells; 0.3 mM, Start): 675.1 ± 94.6 µm; wound width (HUVEC cells; 1.0 mM, 6 hours): 494.6 ± 106.9 µm; wound width (HUVEC cells; 1.0 mM, 12 hours): 414.1 ± 103.5 µm; wound width (HUVEC cells; 1.0 mM, 18 hours): 385.2 ± 94.5 µm; wound width (HUVEC cells; 1.0 mM, 24 hours): 331.3 ± 62.5 µm; wound width (HUVEC cells; 1.0 mM, Start): 609.3 ± 73.0 µm; Released t-PA ([2]; 0.3 mM): 1550.9 ± 135.2 pg/mL; Released t-PA ([2]; 1.0 mM): 1267.1 ± 350.6 pg/mL
